Assay [1] concerns the target T1, Pseudomonas fluorescens HPPD variant CO212f3, SEQ ID NO:10 (Pseudomonas sp., UniProt P80064, A339V/E334G/G335W).
T1 construct: CO212f3; […]; Ala + His6 directly after the start Met (N); made in house; host or cells: E. coli
The experiment in a line: biochemical. The note with it: read-out: pI50 (converted).

The target in assay [2] is T2, Pseudomonas fluorescens HPPD variant CO210d10, SEQ ID NO:9 (Pseudomonas sp., UniProt P80064, E334P/G335S/K338T).
T2 construct: CO210d10; […]; Ala + His6 directly after the start Met (N); made in house; host or cells: E. coli
The experiment in a line: biochemical. The note with it: read-out: pI50 (converted).

The target of assay [3] is Pseudomonas aeruginosa (strain ATX22717) HPPD Axmi305H, native, SEQ ID NO:57 (Pseudomonas aeruginosa, UniProt Q9I576). The experiment in a line: HPPD coupling assay, Axmi305H.
Assay [4] addresses T3, Pseudomonas fluorescens HPPD variant C024H11, SEQ ID NO:5 (Pseudomonas sp., UniProt P80064, G335W/P214L).
T3 construct: C024H11; […]; made in house; host or cells: E. coli (DH5alpha for library screening)
The assay is described as follows: biochemical.

Assay [5] concerns the target Pseudomonas aeruginosa HPPD Axmi305H (SEQ ID NO:57) variant Axmi305H-Evo41 (Pseudomonas aeruginosa, UniProt Q9I576, A342Q/E337P/G338W/K341A). The assay is described as follows: biochemical.
Method: This method is called the HGD assay.
The mutants generated by this approach were transformed into B121-DE3* cells and grown to saturation in LB media. […] By this method, active HPPD enzyme will produce a brown pigment after approximately 24 hours of growth on plates.
Assay [6] has as its target T4, Pseudomonas fluorescens HPPD variant PfHPPDEvo36 (serine for glutamic acid at 335, serine for tryptophan at 336, threonine for lysine at 339, glutamine for alan (Pseudomonas sp., UniProt P80064, A339Q/E334S/G335S/K338T)).
T4 construct: made in house; host or cells: E. coli (DH5alpha for library screening)
Format: biochemical. How it is done:
The theoretical diversity of this library was 640. Screening was carried out as described in Example 3.

For assay [7], the target named is T5, Pseudomonas fluorescens HPPD variant PfHPPDEvo36 (serine for glutamic acid at 335, serine for tryptophan at 336, threonine for lysine at 339, glutamine for alanine at 340 relative to PfG336W), SEQ ID NO:7 (Pseudomonas sp., UniProt P80064, A339Q/E334S/G335S/K338T).
T5 construct: made in house; host or cells: E. coli (DH5alpha for library screening)
The experiment in a line: biochemical.

This note sets out measurements from patent publication US10793872B2, “HPPD variants and methods of use” (Bayer CropScience AG, priority 2012, dated 2020).

T1 sequence (P80064 other isoform, or with tags, fused parts or gaps with the stated changes): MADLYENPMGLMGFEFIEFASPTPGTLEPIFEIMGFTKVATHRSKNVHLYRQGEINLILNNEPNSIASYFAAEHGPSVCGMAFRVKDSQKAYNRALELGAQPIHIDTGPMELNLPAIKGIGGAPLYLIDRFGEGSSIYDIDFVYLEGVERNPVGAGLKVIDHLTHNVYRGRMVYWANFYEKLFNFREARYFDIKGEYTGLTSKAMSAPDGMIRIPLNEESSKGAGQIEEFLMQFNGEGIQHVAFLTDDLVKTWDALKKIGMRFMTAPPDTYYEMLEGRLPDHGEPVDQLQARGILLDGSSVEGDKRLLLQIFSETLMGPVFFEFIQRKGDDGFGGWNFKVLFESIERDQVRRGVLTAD
T2 sequence (P80064 other isoform, or with tags, fused parts or gaps with the stated changes): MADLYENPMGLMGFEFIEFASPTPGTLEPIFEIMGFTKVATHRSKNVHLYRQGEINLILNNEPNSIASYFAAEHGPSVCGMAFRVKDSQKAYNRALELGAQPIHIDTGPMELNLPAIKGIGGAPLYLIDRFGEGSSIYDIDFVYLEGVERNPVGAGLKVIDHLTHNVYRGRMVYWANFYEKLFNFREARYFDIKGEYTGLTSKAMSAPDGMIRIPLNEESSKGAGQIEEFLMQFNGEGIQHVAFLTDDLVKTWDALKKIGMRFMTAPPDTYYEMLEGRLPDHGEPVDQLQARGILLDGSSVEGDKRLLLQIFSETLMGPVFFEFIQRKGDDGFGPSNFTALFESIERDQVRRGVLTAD
T4 sequence (P80064 other isoform, or with tags, fused parts or gaps with the stated changes): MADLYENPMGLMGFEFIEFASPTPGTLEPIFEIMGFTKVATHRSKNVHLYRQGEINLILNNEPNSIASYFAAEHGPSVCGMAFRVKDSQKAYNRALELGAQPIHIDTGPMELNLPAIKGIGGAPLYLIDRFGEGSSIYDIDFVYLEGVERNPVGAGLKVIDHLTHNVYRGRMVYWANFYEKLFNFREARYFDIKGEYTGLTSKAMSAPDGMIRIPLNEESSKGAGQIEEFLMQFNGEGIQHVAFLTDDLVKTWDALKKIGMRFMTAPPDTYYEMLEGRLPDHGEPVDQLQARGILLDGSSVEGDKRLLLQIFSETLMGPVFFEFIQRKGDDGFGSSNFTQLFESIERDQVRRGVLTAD
Pseudomonas aeruginosa (strain ATX22717) HPPD Axmi305H, native, SEQ ID NO:57, sequence (Q9I576 whole entry): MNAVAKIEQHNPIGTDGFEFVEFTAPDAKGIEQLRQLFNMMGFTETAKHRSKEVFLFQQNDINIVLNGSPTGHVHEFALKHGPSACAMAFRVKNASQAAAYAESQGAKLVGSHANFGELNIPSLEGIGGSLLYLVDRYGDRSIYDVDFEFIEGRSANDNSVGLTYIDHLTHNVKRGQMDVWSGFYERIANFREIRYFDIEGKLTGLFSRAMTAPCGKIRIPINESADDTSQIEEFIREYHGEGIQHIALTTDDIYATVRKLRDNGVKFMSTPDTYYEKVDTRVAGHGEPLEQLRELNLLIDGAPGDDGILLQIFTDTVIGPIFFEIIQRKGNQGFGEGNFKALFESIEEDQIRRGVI
Pseudomonas aeruginosa HPPD Axmi305H (SEQ ID NO:57) variant Axmi305H-Evo41, sequence (Q9I576 whole entry E337P/G338W/K341A/A342Q): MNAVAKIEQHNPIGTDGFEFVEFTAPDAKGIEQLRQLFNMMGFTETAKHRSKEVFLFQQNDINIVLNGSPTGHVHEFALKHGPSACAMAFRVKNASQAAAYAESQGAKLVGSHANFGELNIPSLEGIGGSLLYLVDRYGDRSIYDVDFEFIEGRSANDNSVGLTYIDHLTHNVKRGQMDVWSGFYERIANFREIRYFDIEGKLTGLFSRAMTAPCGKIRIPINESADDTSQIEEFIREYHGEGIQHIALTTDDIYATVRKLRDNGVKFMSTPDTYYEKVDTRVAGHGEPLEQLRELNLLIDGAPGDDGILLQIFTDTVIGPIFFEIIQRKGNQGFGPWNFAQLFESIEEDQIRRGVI
T3 sequence (P80064 other isoform, or with tags, fused parts or gaps with the stated changes): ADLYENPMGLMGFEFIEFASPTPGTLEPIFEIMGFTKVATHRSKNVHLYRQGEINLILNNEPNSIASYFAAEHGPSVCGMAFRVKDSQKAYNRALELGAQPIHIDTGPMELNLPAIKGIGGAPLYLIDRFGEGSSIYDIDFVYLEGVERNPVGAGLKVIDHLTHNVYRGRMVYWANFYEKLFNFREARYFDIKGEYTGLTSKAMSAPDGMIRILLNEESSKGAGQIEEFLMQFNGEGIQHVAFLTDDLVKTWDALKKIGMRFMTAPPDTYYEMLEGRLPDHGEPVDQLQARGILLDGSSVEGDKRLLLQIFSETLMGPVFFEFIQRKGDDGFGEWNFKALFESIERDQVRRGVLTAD

For `CS(=O)(=O)c1ccc(C(=O)C2C(=O)CCCC2=O)c([N+](=O)[O-])c1` [Mesotrione, 2-[4-(methylsulfonyl)-2-nitrobenzoyl]-1,3-cyclohexanedione], the IC50 in assay [1] was 3.98 µM; in assay [2], 2 µM; in assay [3] it was 0.2 µM.

For `CS(=O)(=O)c1cc(C(F)(F)F)ccc1C(=O)C(C#N)C(=O)C1CC1` (stereo not shown) [Diketonitrile, 2-cyano-3-cyclopropyl-1-(2-methylsulphonyl-4-trifluoromethylphenyl)-propane-1,3-dione], the IC50 in assay [4] was 100 µM; in assay [1] it was 20 µM; in assay [2], 50.1 µM; in assay [5], 10 µM; in assay [7] it was 31.6 µM. Further, the “improved tolerance compared to PfG336W” value in assay [6] was found to be 16 ×. Also, in assay [6], the “improved tolerance compared to PfHPPDEvo33” value is recorded as 4 ×.
